Measurements from paper PMC6272579, “A Three-Enzyme-System to Degrade Curcumin to Natural Vanillin” (Molecules, 2015).

Target: T1, CAL (Moesziomyces antarcticus, UniProt P41365)
T1 construct: immobilised commercial lipase Novozyme_435 (known to be lipase B)
T1 sequence (P41365 26-342): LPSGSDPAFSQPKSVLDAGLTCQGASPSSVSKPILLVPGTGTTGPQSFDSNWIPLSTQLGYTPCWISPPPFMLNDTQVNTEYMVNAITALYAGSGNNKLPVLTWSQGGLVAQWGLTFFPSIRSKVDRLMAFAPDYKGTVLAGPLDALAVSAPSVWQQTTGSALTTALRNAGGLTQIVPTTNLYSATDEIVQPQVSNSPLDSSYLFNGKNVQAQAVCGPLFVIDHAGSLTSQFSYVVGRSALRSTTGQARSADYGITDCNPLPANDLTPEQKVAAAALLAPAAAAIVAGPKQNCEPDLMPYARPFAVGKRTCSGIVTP
Assay: lipase-catalysed acetylation, LC-MS
Assay type: biochemical
Settings: immobilised enzyme; ethyl acetate/toluene 10:90, 4% acetate buffer pH 6, 40 °C; acyl donor geranyl acetate 1:50; acyl donor to curcumin

lipase-catalysed acetylation, LC-MS: using geranyl acetate as the acyl donor
Structure (SMILES): CC(=O)OC/C=C(\C)CCC=C(C)C [geranyl acetate]
